Consider 3 compounds from ChEMBL document CHEMBL3526033, “Identification of human liver cytochrome P450 enzymes involved in the metabolism of SCH 530348 (Vorapaxar), a potent oral thrombin protease-activated receptor 1 antagonist” (Drug Metab Dispos, 2011).

Common to all, as to format: ADME
Data set [1] can be described thus: Drug metabolism in human intestine microsomes assessed as 2-hydroxyethyl (1R,3aR,4aR,6R,8aR,9S,9aS)-9-((E)-2-(5-(3-fluorophenyl)pyridin-2-yl)vinyl)-1-methyl-3-oxododecahydronaphtho[2,3-c]furan-6-ylcarbamate formation at 25 uM after 120 mins by LC-MS/MS analysis in presence of NADPH. The conditions noted are these: 2 h.
A short description of data set [2]: Drug metabolism in human liver microsomes assessed as compound remaining at 10 uM after 120 mins by LC-MS/MS analysis in presence of NADPH. The conditions noted are these: read-out: Compound recovery. For orientation: Liver microsomes are a subcellular fraction often used to study metabolism.
For data set [3], the target named is T1, Cytochrome P450 2J2 (Homo sapiens, UniProt P51589).
T1 sequence (P51589 whole entry): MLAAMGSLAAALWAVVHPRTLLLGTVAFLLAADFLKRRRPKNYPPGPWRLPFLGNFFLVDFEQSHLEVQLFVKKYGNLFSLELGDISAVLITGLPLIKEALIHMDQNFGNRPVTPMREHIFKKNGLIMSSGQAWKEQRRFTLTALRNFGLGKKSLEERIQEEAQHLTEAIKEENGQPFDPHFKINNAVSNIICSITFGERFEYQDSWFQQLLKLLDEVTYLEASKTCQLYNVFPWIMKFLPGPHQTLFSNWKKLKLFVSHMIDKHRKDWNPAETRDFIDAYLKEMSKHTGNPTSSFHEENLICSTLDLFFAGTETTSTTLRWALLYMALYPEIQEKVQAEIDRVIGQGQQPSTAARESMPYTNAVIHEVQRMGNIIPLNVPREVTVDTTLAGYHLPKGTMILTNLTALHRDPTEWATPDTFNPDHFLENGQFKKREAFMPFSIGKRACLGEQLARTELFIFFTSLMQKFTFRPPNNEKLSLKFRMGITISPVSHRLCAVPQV
Description: Drug metabolism assessed as human recombinant CYP2J2-mediated 2-hydroxyethyl (1R,3aR,4aR,6R,8aR,9S,9aS)-9-((E)-2-(5-(3-fluorophenyl)pyridin-2-yl)vinyl)-1-methyl-3-oxododecahydronaphtho[2,3-c]furan-6-ylcarbamate formation at 25 uM after 120 mins by LC-MS/MS analysis in presence of ketoconazole. The conditions noted are these: recombinant enzyme, 2 h.

In data set [4] the test system is Liver microsome. Description: Drug metabolism in human liver microsomes assessed as (3R,3aS,4S,4aR,7R,8aR,9aR)-7-amino-4-((E)-2-(5-(3-fluorophenyl)pyridin-2-yl)vinyl)-3-methyldecahydronaphtho[2,3-c]furan-1(3H)-one formation at 10 to 25 uM after 120 mins by LC-MS/MS analysis in presence of CYP3A4-specific inhibitory monoclonal antibody. The following applies: 2 h.

The target in data set [5] is Cytochrome P450 1B1 (Homo sapiens, UniProt Q16678). Description: Activity of human recombinant CYP1B1 assessed as enzyme-mediated drug metabolism treated with 25 uM vorapaxar after 120 mins by LC-MS/MS analysis in presence of NADPH. The following applies: 2 h.
Chain of Cytochrome P450 1B1 (Q16678 whole entry): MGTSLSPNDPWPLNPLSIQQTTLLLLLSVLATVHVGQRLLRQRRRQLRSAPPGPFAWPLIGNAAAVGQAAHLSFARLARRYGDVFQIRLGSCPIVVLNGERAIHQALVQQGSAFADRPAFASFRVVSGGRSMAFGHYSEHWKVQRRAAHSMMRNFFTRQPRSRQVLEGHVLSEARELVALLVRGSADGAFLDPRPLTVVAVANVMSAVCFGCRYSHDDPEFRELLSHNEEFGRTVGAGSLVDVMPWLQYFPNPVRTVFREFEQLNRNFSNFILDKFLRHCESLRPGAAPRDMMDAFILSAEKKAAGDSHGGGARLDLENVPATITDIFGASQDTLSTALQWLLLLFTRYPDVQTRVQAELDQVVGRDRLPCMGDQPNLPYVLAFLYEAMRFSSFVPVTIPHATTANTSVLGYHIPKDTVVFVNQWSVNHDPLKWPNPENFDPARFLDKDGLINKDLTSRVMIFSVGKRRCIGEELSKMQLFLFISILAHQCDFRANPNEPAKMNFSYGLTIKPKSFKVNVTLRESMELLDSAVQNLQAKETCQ
Data set [6] addresses Cytochrome P450 4F2 (Homo sapiens, UniProt P78329). Description: Activity of human recombinant CYP4F2 assessed as enzyme-mediated drug metabolism treated with 25 uM vorapaxar after 120 mins by LC-MS/MS analysis in presence of NADPH. The following applies: 2 h.
Data set [7] deals with T2, Cytochrome P450 1A2 (Homo sapiens, UniProt P05177).
T2 sequence (P05177 whole entry): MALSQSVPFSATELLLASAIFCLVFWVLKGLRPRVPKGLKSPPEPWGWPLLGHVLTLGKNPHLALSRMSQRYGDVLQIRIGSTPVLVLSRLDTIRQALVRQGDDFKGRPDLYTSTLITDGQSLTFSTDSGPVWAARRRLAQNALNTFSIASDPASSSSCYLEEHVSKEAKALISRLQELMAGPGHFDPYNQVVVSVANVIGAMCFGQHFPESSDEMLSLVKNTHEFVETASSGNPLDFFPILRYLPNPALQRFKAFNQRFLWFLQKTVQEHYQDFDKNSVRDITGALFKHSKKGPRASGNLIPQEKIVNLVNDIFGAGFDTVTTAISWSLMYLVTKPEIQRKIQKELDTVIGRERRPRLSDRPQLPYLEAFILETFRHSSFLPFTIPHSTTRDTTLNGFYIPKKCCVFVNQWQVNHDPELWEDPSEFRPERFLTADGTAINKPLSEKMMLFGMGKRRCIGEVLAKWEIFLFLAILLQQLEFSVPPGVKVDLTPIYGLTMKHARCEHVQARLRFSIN
Description: Activity of human recombinant CYP1A2 assessed as enzyme-mediated drug metabolism treated with 25 uM vorapaxar after 120 mins by LC-MS/MS analysis in presence of NADPH. The following applies: 2 h.

The target in data set [8] is T3, Cytochrome P450 4F3 (Homo sapiens, UniProt Q08477).
T3 sequence (Q08477 whole entry): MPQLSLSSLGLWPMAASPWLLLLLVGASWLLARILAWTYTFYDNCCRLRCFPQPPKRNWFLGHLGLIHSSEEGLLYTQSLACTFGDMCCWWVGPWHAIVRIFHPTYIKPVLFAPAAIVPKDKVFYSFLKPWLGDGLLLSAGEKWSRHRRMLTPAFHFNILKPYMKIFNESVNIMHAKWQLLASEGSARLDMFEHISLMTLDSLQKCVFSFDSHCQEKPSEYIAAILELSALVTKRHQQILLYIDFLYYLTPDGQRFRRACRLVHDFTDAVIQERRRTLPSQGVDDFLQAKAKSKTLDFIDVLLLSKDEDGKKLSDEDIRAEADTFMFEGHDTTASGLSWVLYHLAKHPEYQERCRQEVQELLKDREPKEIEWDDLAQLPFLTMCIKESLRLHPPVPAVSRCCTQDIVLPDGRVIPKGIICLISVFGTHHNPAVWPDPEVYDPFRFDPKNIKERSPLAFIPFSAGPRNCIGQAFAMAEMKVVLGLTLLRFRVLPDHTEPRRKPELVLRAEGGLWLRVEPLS
Description: Activity of human recombinant CYP4F3B assessed as enzyme-mediated 2-hydroxyethyl (1R,3aR,4aR,6R,8aR,9S,9aS)-9-((E)-2-(5-(3-fluorophenyl)pyridin-2-yl)vinyl)-1-methyl-3-oxododecahydronaphtho[2,3-c]furan-6-ylcarbamate formation at 25 uM after 120 mins by LC-MS/MS analysis in presence of NADPH. The following applies: 2 h.

The target in data set [9] is T4, Cytochrome P450 2B6 (Homo sapiens, UniProt P20813).
T4 sequence (P20813 whole entry): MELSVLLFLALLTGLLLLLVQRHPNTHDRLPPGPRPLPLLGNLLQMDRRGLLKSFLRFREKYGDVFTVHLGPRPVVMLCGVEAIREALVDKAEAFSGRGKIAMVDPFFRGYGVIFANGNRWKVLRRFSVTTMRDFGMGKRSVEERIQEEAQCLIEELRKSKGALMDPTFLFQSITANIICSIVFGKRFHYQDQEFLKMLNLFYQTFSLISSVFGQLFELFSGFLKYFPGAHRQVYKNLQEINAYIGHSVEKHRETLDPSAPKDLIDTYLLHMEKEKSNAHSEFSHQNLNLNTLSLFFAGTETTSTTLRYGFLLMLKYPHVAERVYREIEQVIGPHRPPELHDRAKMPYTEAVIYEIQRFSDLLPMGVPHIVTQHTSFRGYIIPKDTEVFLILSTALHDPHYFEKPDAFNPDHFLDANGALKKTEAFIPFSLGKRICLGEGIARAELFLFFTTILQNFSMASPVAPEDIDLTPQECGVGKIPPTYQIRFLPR
Description: Activity of human recombinant CYP2B6 assessed as enzyme-mediated drug metabolism at 10 uM after 120 mins by LC-MS/MS analysis. The conditions noted are these: 2 h.

Chain of Cytochrome P450 4F2 (P78329 whole entry): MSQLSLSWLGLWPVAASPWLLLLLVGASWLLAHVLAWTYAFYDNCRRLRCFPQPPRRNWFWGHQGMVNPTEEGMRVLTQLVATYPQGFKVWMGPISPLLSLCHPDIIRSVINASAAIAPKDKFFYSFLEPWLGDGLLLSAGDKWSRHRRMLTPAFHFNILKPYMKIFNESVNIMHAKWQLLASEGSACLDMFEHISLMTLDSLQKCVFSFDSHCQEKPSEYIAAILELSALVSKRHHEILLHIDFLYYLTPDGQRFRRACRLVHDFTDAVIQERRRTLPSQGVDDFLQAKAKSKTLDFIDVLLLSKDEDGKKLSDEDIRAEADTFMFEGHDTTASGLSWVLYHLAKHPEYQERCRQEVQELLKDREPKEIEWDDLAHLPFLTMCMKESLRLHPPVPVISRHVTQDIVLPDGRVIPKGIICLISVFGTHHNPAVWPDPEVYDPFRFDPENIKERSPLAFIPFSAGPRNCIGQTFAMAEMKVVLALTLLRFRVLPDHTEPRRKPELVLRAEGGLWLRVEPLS

Turning to `CCOC(=O)N[C@@H]1CC[C@@H]2[C@@H](C1)C[C@H]1C(=O)O[C@H](C)[C@H]1[C@H]2/C=C/c1ccc(-c2cccc(F)c2)cn1` [VORAPAXAR], the values for the Drug metabolism entry in [1], in data set [3] and in data set [4] were “metabolite_detected”, “metabolite_not_detected” and “metabolite_not_detected”, respectively. The remaining at 2 h, 10 µM in data set [2] is 92.7%.

As to `C[C@H]1OC(=O)[C@@H]2C[C@@H]3C[C@H](NC(=O)OCCO)CC[C@H]3[C@H](/C=C/c3ccc(-c4cccc(F)c4)cn3)[C@H]12`, the Drug metabolism result in data set [5], in [6] and in data set [7] was “metabolite_detected” each time.

Regarding `CCOC(=O)N[C@@H]1CC[C@@H]2[C@@H](C1)C[C@H]1C(=O)O[C@H](C)[C@H]1[C@H]2/C=[14CH]/c1ccc(-c2cccc(F)c2)cn1`, the figures for the Drug metabolism result in data set [8] and in data set [9] were “metabolite_detected” and “metabolite_not_detected”, respectively.
